Laboratory results reported in article PMC7139875, “4-Pyridinio-1,4-Dihydropyridines as Calcium Ion Transport Modulators: Antagonist, Agonist, and Dual Action” (Oxidative Medicine and Cellular Longevity, 2020).
Like-named read-outs stand apart in the source and are kept apart here.

What was measured:
[1] = test system: carbachol-dependent mobilization of intracellular Ca2+ in SH-SY5Y cells; assay: Antagonist effect on carbachol-evoked intracellular Ca2+ mobilization (Fluo-4 NW); assay type: cell-based, human; settings: Homo sapiens; SH-SY5Y cells, 100 nM carbachol, 15 min preincubation; read-out: Antagonist activity (IC50)
Description: (§1) The intracellular free Ca^2+ concentration [Ca^2+]i was measured in confluent monolayers of SH-SY5Y or A7R5 cells with the Ca^2+-sensitive fluorescent indicator Fluo-4 NW according to the instruction (Fluo-4 NW Calcium Assay Kit, Thermo Fisher Scientific, cat. No. F36206) (as referenced by Vilskersts et al..
The investigation of Ca^2+ channel blocking activity of DHP derivatives was based on the effect of DHP on carbachol evoked intracellular Ca^2+ mobilization in human neuroblastoma cells.
The cells were preincubated in the dark for 15 minutes with the tested compounds at concentrations ranging from 0.16 to 100 μM. The application of carbachol (100 nM) to […] NW loaded SH-SY5Y cells stimulated a classic “biphasic” response. The well-known 3rd generation calcium channel inhibitor amlodipine, which is also claimed to act as antioxidant and free radical scavenger, was used as the positive control (at the concentration range from 20 to 100 μM).
(§2) Changes in [Ca^2+]i were measured from the fluorescence emitted at 516 nm due to alternate excitation at 494 nm using the microplate reader Tecan Infinite M1000 (Austria). Intracellular Ca^2+ concentration was calculated from a standard curve with known amounts of free Ca^2+ using the standard Ca^2+-EGTA buffering system (Calcium Calibration Buffer Kit, cat. No.C-3008, Thermo Fisher Scientific).
The IC50 values for the tested compounds were calculated using GraphPad Prism 4.0 software.

[Ca2+]i in SH-SY5Y cells = Ca2+ channel agonist activity, [Ca2+]i in Fluo-4 NW-loaded cells; assay type: cell-based, human; settings: compound at 100 μM
Description: as §1
For the investigation of Ca^2+ channel agonist activity of the DHP compound, 4 […] NW loaded SH-SY5Y or A7R5 cells were stimulated by the addition of compound 4 at the concentration range from 4 to 100 μM. The well-known calcium channel agonist Bay K8644 was used as the positive control (at the concentration range from 4 to 100 μM).
as §2
In some experiments, […] NW loaded cells were washed and placed in normal Ca^2+-free HEPES-buffered replacement medium. In Ca^2+ restoration experiments, Ca^2+ was initially absent from the medium and was restored to 1 mM after 870 s of stimulation with compound 4.

[2] = test system: Ca2+ ion channel activity evoked by compound 4 in SH-SY5Y cells; assay: Inhibitor analysis of Ca2+ ion channel activity evoked by compound 4; assay type: cell-based, human
Description: The intracellular free Ca^2+ concentration [Ca^2+]i was measured in confluent monolayers of SH-SY5Y or […] cells with the Ca^2+-sensitive fluorescent indicator Fluo-4 NW according to the instruction (Fluo-4 NW Calcium Assay Kit, Thermo Fisher Scientific, cat. No. F36206) (as referenced by […] al.. Changes in [Ca^2+]i were measured from the fluorescence emitted at 516 nm due to alternate excitation at 494 nm using the microplate reader Tecan Infinite M1000 (Austria). Intracellular Ca^2+ concentration was calculated from a standard curve with known amounts of free Ca^2+ using the standard Ca^2+-EGTA buffering system (Calcium Calibration Buffer Kit, cat. No.C-3008, Thermo Fisher Scientific). […] The commercial calcium agonist compound Bay […] was used as the reference compound.

isolated rat aortic ring = assay: Isolated rat aortic ring model, KCl precontracted denuded rings; settings: KCl precontracted denuded rat aortic rings; read-out: Calcium channel blocking activity EC50
Description: The experimental animal (one rat) was anesthetized with pentobarbital sodium (60 mg/kg i.p.). Once deep anesthesia was achieved, the thoracic aorta was dissected, placed in ice cold Krebs-Henseleit (K-H) buffer (content in mM: NaCl 118, KCl 4.7, CaCl2 2.5, MgCl2 1.64, NaHCO3 24.88, KH2PO4 1.18, glucose 10.0, sodium pyruvate 5.0, and disodium salt of ethylenediaminetetraacetic acid 0.05), cleaned from connective and fatty tissues, and cut into 3-4 mm long rings. Endothelium was mechanically scraped off with the tips of forceps, and the aortic rings were mounted between two stainless steel hooks attached to an isometric force transducer in 20 ml organ bath in K-H buffer bubbled with 95% O2 and 5% CO2 at 37°C (one separate aortic ring was used for each tested compound). Passive tension was adjusted to approximately 40 mN over a 60 min equilibration period. The experiment was started after the equilibration period by adding KCl solution to obtain a concentration of 50 mM. Addition of KCl induced contraction of the aortic rings, and a plateau of contraction was reached about […]. Thereafter, the tested compound solutions in dimethyl sulfoxide were added to the aortic rings in order to obtain the final concentrations in the range of 10^−10-10^−5 M. Changes in the tension were recorded using LabChart Pro software from ADInstruments (https://www.adinstruments.com/products/labchart/labchart-for-research). The EC50 values of the tested compounds were calculated using Prism 3.0 software from GraphPad (GraphPad Software Inc., USA) (https://www.graphpad.com/scientific-software/prism/). The experimental procedures involving experimental animals were carried out in accordance with the guidelines of the European Community, LR local laws and policies, and were approved by the Latvian Animal Protection Ethical Committee, the Food and Veterinary Service, Riga, Latvia.

[3] = test system: carbachol-dependent mobilization of intracellular Ca2+ in SH-SY5Y cells; parameters: method as in earlier work; settings: SH-SY5Y cells stimulated by 100 nM carbachol; read-out: Antagonist effect IC50; cited from earlier work

For `CCOC(=O)C1=C(COCCN)NC(C)=C(C(=O)OC)C1c1ccccc1Cl` (stereo not drawn) [Amlodipine], which IC50 [1] is on record?
The IC50 was 11 ± 2 µM.

And the “Agonist activity (RFU, 100 μM)” value ([Ca2+]i in SH-SY5Y cells)?
The value was “No effect”.

And the inhibition at 100 µM ([2]; Homo sapiens, SH-SY5Y, inhibitor 100 μM, 15 min preincubation, 100 μM compound 4)?
The inhibition at 100 µM was 50 ± 11%.

And the IC50 ([2]; Homo sapiens, 100 μM compound 4, SH-SY5Y cells, read-out: IC50 for inhibition of Ca2+ ion channel activity evoked by compound 4)?
The IC50 was 100 µM.

What about the “Inhibition (%) of Ca2+ ion channel activity evoked by compound 4” value ([2]; inhibitor 4 μM, 100 μM compound 4) of the same molecule?
The value was 0 ± 6%.

What about the “Inhibition (%) of Ca2+ ion channel activity evoked by compound 4” value ([2]; inhibitor 20 μM, 100 μM compound 4) of the same molecule?
The value was 10 ± 11%.

And the “Phase of the compound 4 response that is inhibited” value ([2]; inhibitor 100 μM, 100 μM compound 4)?
Its value is “inhibited the first phase of the response”.

What about the EC50 (isolated rat aortic ring) of the same molecule?
The EC50 was 0.0143 ± 0.0003 µM.

And the IC50 [3]?
The IC50 was 13 µM.
